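These data come from cells grown in 96-well plates and exposed to compound for 48 hours at five concentrations. Here, GI50 denotes the concentration required for 50% inhibition of growth.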 Active and inactive are the calls of the source. Rule as the data show it: active = GI50 up to about 1.1 µM and inactive = higher.
Experiments:
Test in all cases: DTP human tumour cell line panel, 48 h
Malme-3M = test system: Malme-3M
MDA-MB-435 = test system: MDA-MB-435
RPMI-8226 = test system: RPMI-8226
HT-29 = test system: HT-29
SF-295 = test system: SF-295
LOX IMVI = test system: LOX IMVI
UACC-62 = test system: UACC-62
SN12C = test system: SN12C
MDA-N = test system: MDA-N
CAKI-1 = test system: CAKI-1
OVCAR-4 = test system: OVCAR-4
SF-539 = test system: SF-539
EKVX = test system: EKVX
HCT-116 = test system: HCT-116
MOLT-4 = test system: MOLT-4
OVCAR-3 = test system: OVCAR-3
A498 = test system: A498
NCI-H460 = test system: NCI-H460
COLO 205 = test system: COLO 205
U-251 = test system: U-251

SMILES	GI50 (Malme-3M)	GI50 (MDA-MB-435)	GI50 (RPMI-8226)	GI50 (HT-29)	GI50 (SF-295)	GI50 (LOX IMVI)	GI50 (UACC-62)	GI50 (SN12C)	GI50 (MDA-N)	GI50 (CAKI-1)	GI50 (OVCAR-4)	GI50 (SF-539)	GI50 (EKVX)	GI50 (HCT-116)	GI50 (MOLT-4)	GI50 (OVCAR-3)	GI50 (A498)	GI50 (NCI-H460)	GI50 (COLO 205)	GI50 (U-251)
O=c1[nH]c2ccccc2nc1CBr	2.74 µM (inactive)	12.3 µM (inactive)	2.06 µM (inactive)	6.24 µM (inactive)	12.6 µM (inactive)	0.912 µM (active)	8.11 µM (inactive)	9.38 µM (inactive)	12 µM (inactive)	7.33 µM (inactive)	4.62 µM (inactive)	9.23 µM (inactive)	3.3 µM (inactive)	8.39 µM (inactive)	1.87 µM (inactive)	1.57 µM (inactive)	21.8 µM (inactive)	11.4 µM (inactive)	5.78 µM (inactive)	9.98 µM (inactive)
CC(C)N(c1cc2c(cc1F)c(=O)c(C(=O)O)cn2-c1ccc(N2CCN(C)CC2)cn1)C(C)C	> 100 µM (inactive)	> 100 µM (inactive)	> 100 µM (inactive)	> 100 µM (inactive)	> 100 µM (inactive)	> 100 µM (inactive)	> 10 µM (inactive)	> 100 µM (inactive)	> 100 µM (inactive)	> 100 µM (inactive)	> 100 µM (inactive)	> 100 µM (inactive)	> 100 µM (inactive)	> 100 µM (inactive)	> 100 µM (inactive)	> 100 µM (inactive)	> 100 µM (inactive)	> 100 µM (inactive)	> 100 µM (inactive)	> 100 µM (inactive)
O=[N+]([O-])c1cc(Cl)ccc1S(=O)(=O)c1cc(Cl)cc2c1NCCC2	> 100 µM (inactive)	39.6 µM (inactive)	> 100 µM (inactive)	45.6 µM (inactive)	36.7 µM (inactive)	58.5 µM (inactive)	29.5 µM (inactive)	> 100 µM (inactive)	39.3 µM (inactive)	66.7 µM (inactive)	> 100 µM (inactive)	> 100 µM (inactive)	85.7 µM (inactive)	63.1 µM (inactive)	27.6 µM (inactive)	62.7 µM (inactive)	> 100 µM (inactive)	55.1 µM (inactive)	99.8 µM (inactive)	
CC(=O)O[C@@H]1O[Si](C(C)(C)C)(C(C)(C)C)[C@H](C)[C@H]1C	7.91 µM (inactive)	94.8 µM (inactive)	45.1 µM (inactive)	18.6 µM (inactive)	90.8 µM (inactive)	25.8 µM (inactive)	83.6 µM (inactive)	> 100 µM (inactive)	> 100 µM (inactive)	> 100 µM (inactive)	> 100 µM (inactive)	> 100 µM (inactive)	41.7 µM (inactive)	29.9 µM (inactive)	20.8 µM (inactive)	24 µM (inactive)	> 100 µM (inactive)		> 100 µM (inactive)	43.7 µM (inactive)
CCc1cc2c(c3c1CCCC3=O)CC1(Cc3ccc(C(=O)OC)cc3C1)C2 (configuration not stated)	49.2 µM (inactive)	37.2 µM (inactive)	18.7 µM (inactive)	68.1 µM (inactive)	85.7 µM (inactive)	84.5 µM (inactive)		> 100 µM (inactive)	> 100 µM (inactive)	96.6 µM (inactive)	40.9 µM (inactive)	> 100 µM (inactive)	96.6 µM (inactive)	37.9 µM (inactive)	24.9 µM (inactive)	> 100 µM (inactive)	> 100 µM (inactive)	> 100 µM (inactive)	47.9 µM (inactive)	82.8 µM (inactive)
Cc1cc(/N=C/c2ccc(F)cc2)n(-c2ccccc2)n1	75.5 µM (inactive)	74.1 µM (inactive)	21.3 µM (inactive)	48.9 µM (inactive)	57.5 µM (inactive)	> 100 µM (inactive)	> 100 µM (inactive)	57.3 µM (inactive)	73.3 µM (inactive)	> 100 µM (inactive)	75.7 µM (inactive)	> 100 µM (inactive)	66.7 µM (inactive)	> 100 µM (inactive)	35.3 µM (inactive)	> 100 µM (inactive)	42.3 µM (inactive)	41.5 µM (inactive)	37.1 µM (inactive)	> 100 µM (inactive)
CC(/C=C/C(=O)NO)=C\C(C)C(=O)c1ccc(N(C)C)cc1 (configuration not stated)	< 0.01 µM (active)	0.0159 µM (active)	< 0.01 µM (active)	< 0.01 µM (active)	0.0951 µM (active)	< 0.01 µM (active)	0.0512 µM (active)	0.0605 µM (active)	0.0287 µM (active)	0.029 µM (active)	0.0409 µM (active)	0.0267 µM (active)	0.261 µM (active)	< 0.01 µM (active)	< 0.0135 µM (active)	0.0119 µM (active)	0.0841 µM (active)	< 0.01 µM (active)	0.0209 µM (active)	0.0142 µM (active)
